Measured values published in US8927500B2, “Peptidomimetic macrocycles” (Aileron Therapeutics, Inc., priority 2012, dated 2015).
Read-outs that look alike come from different tables or passages of the source. Where a SMILES comes first, the peptide text is derived from it. Bridges are numbered along the chain shown (N, C = ends). [ ]: non-standard residue; d: D form. R8 = C=CCCCCCC[C@@](C)(N)C(=O)O; Cba = N[C@@H](CC1CCC1)C(=O)O; S5 = C=CCCC[C@](C)(N)C(=O)O

Tests used:
MDM2 = MDM2 (Homo sapiens, UniProt Q00987); assay: Competitive fluorescence polarization assay for MDM2; assay type: binding; settings: competitive FP assay, MDM2; for IC50: read-out: IC50 (MDM2)
Sequence of MDM2 (Q00987 1-125): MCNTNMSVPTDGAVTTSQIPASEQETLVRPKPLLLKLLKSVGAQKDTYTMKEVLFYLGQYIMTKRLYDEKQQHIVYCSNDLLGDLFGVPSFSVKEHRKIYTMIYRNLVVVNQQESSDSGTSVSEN

MDMX = molecular target: T1, MDMX (Homo sapiens, UniProt O15151); assay: Competitive fluorescence polarization assay for MDMX; assay type: binding; settings: competitive FP assay; for IC50: read-out: IC50 (MDMX); for Ki: read-out: Ki (MDMX)
T1 sequence (O15151 1-125): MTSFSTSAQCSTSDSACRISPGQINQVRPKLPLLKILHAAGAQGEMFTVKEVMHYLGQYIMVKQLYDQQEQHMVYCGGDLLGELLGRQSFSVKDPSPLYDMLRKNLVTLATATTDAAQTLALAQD

| IC50 (MDM2) | Ki (MDM2; read-out: Ki (MDM2)) | IC50 (MDMX) | Ki (MDMX) | SMILES | Ki (MDM2; Ki (MDM2)) |
| --- | --- | --- | --- | --- | --- |
| 100 to 1000 nM | 10 to 100 nM |  |  | CC(=O)N[C@@H](CC(C)C)C(=O)N[C@H](C(=O)N[C@@H](Cc1ccccc1)C(=O)N[C@]1(C)CCCCCCC=CCCC[C@@](C)(C(=O)N[C@@H](C)C(=O)N[C@@H](C)C(=O)NC(C)(C)C(=O)N[C@H](C(N)=O)C(C)C)NC(=O)[C@H](CC(C)C)NC(=O)[C@H](CCC(N)=O)NC(=O)[C@H](C)NC(=O)[C@H](Cc2c[nH]c3ccccc23)NC(=O)[C@H](Cc2ccc(O)cc2)NC(=O)[C@H](C)NC1=O)[C@@H](C)O (single isomer, unassigned) [compound 23] |  |
| 10 to 100 nM | < 10 nM |  |  | CC(=O)N[C@@H](CC(C)C)C(=O)N[C@H](C(=O)N[C@@H](Cc1ccccc1)C(=O)N[C@]1(C)CCCCCCC=CCCC[C@@](C)(C(=O)N[C@@H](C)C(=O)N[C@@H](C)C(=O)NC(C)(C)C(=O)N[C@H](C(N)=O)C(C)C)NC(=O)[C@H](CC(C)C)NC(=O)[C@H](CCC(N)=O)NC(=O)[C@H](C)NC(=O)[C@H](Cc2c[nH]c3ccccc23)NC(=O)[C@H](Cc2ccc(O)cc2)NC(=O)[C@H](C)NC1=O)[C@@H](C)O (single isomer, unassigned) [compound 24] |  |
| 100 to 1000 nM | 10 to 100 nM | 100 to 1000 nM | 10 to 100 nM | CCCC[C@H](NC(=O)[C@H](C)NC(=O)[C@H](C)NC(=O)[C@]1(C)CCCC=CCCCCCC[C@@](C)(NC(=O)[C@H](Cc2ccccc2)NC(=O)[C@@H](NC(=O)[C@H](CC(C)C)NC(C)=O)[C@@H](C)O)C(=O)N[C@@H](C)C(=O)N[C@@H](Cc2ccc(O)cc2)C(=O)N[C@@H](Cc2c[nH]c3ccccc23)C(=O)N[C@@H](C)C(=O)N[C@@H](CCC(N)=O)C(=O)N[C@@H](CC(C)C)C(=O)N1)C(=O)N[C@@H](C)C(N)=O (single isomer, unassigned) [compound 68] |  |
|  |  | 10 to 100 nM | 10 to 100 nM | CC(=O)N[C@@H](CC(C)C)C(=O)N[C@H](C(=O)N[C@@H](Cc1ccc(F)c(F)c1)C(=O)N[C@]1(C)CCCCCCC=CCCC[C@@](C)(C(=O)N[C@@H](CO)C(=O)N[C@@H](C)C(=O)N[C@@H](C)C(N)=O)NC(=O)[C@H](CC2CCC2)NC(=O)[C@H](CCC(N)=O)NC(=O)[C@H](C)NC(=O)[C@H](Cc2c[nH]c3ccccc23)NC(=O)[C@H](Cc2ccc(O)cc2)NC(=O)[C@H](CCC(=O)O)NC1=O)[C@@H](C)O (single isomer, unassigned) [compound 289] |  |
|  |  | 100 to 1000 nM | 10 to 100 nM | CC(=O)N[C@@H](CC(C)C)C(=O)N[C@H](C(=O)N[C@@H](Cc1ccccc1)C(=O)N[C@]1(C)CCCCCCC=CCCC[C@@](C)(C(=O)N[C@@H](C)C(=O)N[C@@H](C)C(=O)N[C@@H](C)C(=O)N[C@@H](C)C(=O)N[C@H](C)C(N)=O)NC(=O)[C@H](CCC(C)C)NC(=O)[C@H](CCC(N)=O)NC(=O)[C@H](C)NC(=O)[C@H](Cc2c[nH]c3ccccc23)NC(=O)[C@H](Cc2ccc(O)cc2)NC(=O)[C@H](C)NC1=O)[C@@H](C)O (single isomer, unassigned) [compound 313] |  |
|  |  | 10 to 100 nM | < 10 nM | CC(=O)N[C@@H](CC(C)C)C(=O)N[C@H](C(=O)N[C@@H](Cc1ccccc1)C(=O)N[C@]1(C)CCCCCCC=CCCC[C@@](C)(C(=O)N[C@@H](C)C(=O)N[C@@H](C)C(=O)N[C@@H](C)C(=O)N[C@@H](C)C(=O)N[C@H](C)C(N)=O)NC(=O)[C@H](CCC(C)C)NC(=O)[C@H](CCC(N)=O)NC(=O)[C@H](C)NC(=O)[C@H](Cc2c[nH]c3ccccc23)NC(=O)[C@H](Cc2ccc(O)cc2)NC(=O)[C@H](C)NC1=O)[C@@H](C)O (single isomer, unassigned) [compound 314] |  |
| 10 to 100 nM | < 10 nM |  |  | CCCC[C@H](NC(=O)C(C)(C)NC(=O)[C@H](C)NC(=O)[C@]1(C)CCCC=CCCCCCC[C@@](C)(NC(=O)[C@H](Cc2ccccc2)NC(=O)[C@@H](NC(=O)[C@H](CC(C)C)NC(C)=O)[C@@H](C)O)C(=O)N[C@@H](C)C(=O)N[C@@H](Cc2ccc(O)cc2)C(=O)N[C@@H](Cc2c[nH]c3ccccc23)C(=O)N[C@@H](C)C(=O)N[C@@H](CCC(N)=O)C(=O)N[C@@H](CC(C)C)C(=O)N1)C(=O)N[C@@H](C)C(N)=O (single isomer, unassigned) [compound 392] |  |
| < 10 nM | < 10 nM |  |  | CCCC[C@H](NC(=O)CN(C)C(=O)[C@H](C)NC(=O)[C@]1(C)CCCC=CCCCCCC[C@@](C)(NC(=O)[C@H](Cc2ccccc2)NC(=O)[C@@H](NC(=O)[C@H](CC(C)C)NC(C)=O)[C@@H](C)O)C(=O)N[C@@H](C)C(=O)N[C@@H](Cc2ccc(O)cc2)C(=O)N[C@@H](Cc2c[nH]c3ccccc23)C(=O)N[C@@H](C)C(=O)N[C@@H](CCC(N)=O)C(=O)N[C@@H](CC(C)C)C(=O)N1)C(=O)N[C@@H](C)C(N)=O (single isomer, unassigned) [compound 396] |  |
|  | 10 to 100 nM |  |  | CC(=O)N[C@@H](CC(C)C)C(=O)N[C@H](C(=O)N[C@@H](Cc1ccccc1)C(=O)N[C@]1(C)CCCCCCC=CCCC[C@@](C)(C(=O)N[C@@H](C)C(=O)N[C@@H](C)C(=O)N[C@@H](C)C(=O)N[C@@H](C)C(=O)NC(C)(C)C(=O)N[C@H](C)C(N)=O)NC(=O)[C@H](CC(C)C)NC(=O)[C@H](CCC(N)=O)NC(=O)[C@H](C)NC(=O)[C@H](Cc2c[nH]c3ccccc23)NC(=O)[C@H](Cc2ccc(O)cc2)NC(=O)[C@H](CCC(=O)O)NC1=O)[C@@H](C)O (single isomer, unassigned) [compound 565] |  |
|  | < 10 nM |  |  | CC(=O)N[C@@H](CC(C)C)C(=O)N[C@H](C(=O)N[C@@H](Cc1ccccc1)C(=O)N[C@]1(C)CCCCCCC=CCCC[C@@](C)(C(=O)N[C@@H](C)C(=O)N[C@@H](C)C(=O)N[C@@H](C)C(=O)N[C@@H](C)C(=O)NC(C)(C)C(=O)N[C@H](C)C(N)=O)NC(=O)[C@H](CC(C)C)NC(=O)[C@H](CCC(N)=O)NC(=O)[C@H](C)NC(=O)[C@H](Cc2c[nH]c3ccccc23)NC(=O)[C@H](Cc2ccc(O)cc2)NC(=O)[C@H](CCC(=O)O)NC1=O)[C@@H](C)O (single isomer, unassigned) [compound 566] |  |
|  |  | > 1000 nM | > 1000 nM | CCCCCCCCCC(=O)N[C@@H](CC(C)C)C(=O)N[C@H](C(=O)N[C@@H](Cc1ccccc1)C(=O)N[C@]1(C)CCCCCCC=CCCC[C@@](C)(C(=O)N[C@@H](CO)C(=O)N[C@@H](C)C(=O)N[C@@H](C)C(N)=O)NC(=O)[C@H](CCC(C)C)NC(=O)[C@H](CCC(N)=O)NC(=O)[C@H](C)NC(=O)[C@H](Cc2c[nH]c3ccccc23)NC(=O)[C@H](Cc2ccc(O)cc2)NC(=O)[C@H](CCC(=O)O)NC1=O)[C@@H](C)O [compound 282] |  |
|  |  | 10 to 100 nM | < 10 nM | CC(=O)N[C@@H](CC(C)C)C(=O)N[C@H](C(=O)N[C@@H](Cc1ccccc1)C(=O)N[C@]1(C)CCCCCCC=CCCC[C@@](C)(C(=O)N[C@@H](CO)C(=O)N[C@@H](C)C(=O)N[C@@H](C)C(N)=O)NC(=O)[C@H](CC2CCC2)NC(=O)[C@H](CCC(N)=O)NC(=O)[C@H](C)NC(=O)[C@H](Cc2c[nH]c3cc(Cl)ccc23)NC(=O)[C@H](Cc2ccc(O)cc2)NC(=O)[C@H](CCC(=O)O)NC1=O)[C@@H](C)O [compound 332] |  |
|  |  | 10 to 100 nM | < 10 nM | CC(C)C[C@H](NC(=O)CN(C)C)C(=O)N[C@H](C(=O)N[C@@H](Cc1ccccc1)C(=O)N[C@]1(C)CCCCCCC=CCCC[C@@](C)(C(=O)N[C@@H](CO)C(=O)N[C@@H](C)C(=O)N[C@@H](C)C(N)=O)NC(=O)[C@H](CC2CCC2)NC(=O)[C@H](CCC(N)=O)NC(=O)[C@H](C)NC(=O)[C@H](Cc2c[nH]c3ccccc23)NC(=O)[C@H](Cc2ccc(O)cc2)NC(=O)[C@H](CCC(=O)O)NC1=O)[C@@H](C)O [compound 435] |  |
|  |  |  |  | CC(=O)N[C@@H](CC(C)C)C(=O)N[C@H](C(=O)N[C@@H](Cc1ccccc1)C(=O)N[C@]1(C)CCCCCCC=CCCC[C@@](C)(C(=O)N[C@H](C)C(N)=O)NC(=O)[C@H](CC(C)C)NC(=O)[C@H](CCC(N)=O)NC(=O)[C@H](C)NC(=O)[C@H](Cc2c[nH]c3ccccc23)NC(=O)[C@H](Cc2ccc(O)cc2)NC(=O)[C@H](CCC(=O)O)NC1=O)[C@@H](C)O [compound 589] (Ac-LTF[R8]EYWAQL[S5][dA]-NH2; staple 4-11) | < 10 nM |
|  | > 1000 nM |  |  | CC(=O)N[C@@H](CC(C)C)C(=O)N[C@H](C(=O)N[C@@H](Cc1ccccc1)C(=O)N[C@]1(C)CCCCCCC=CCCC[C@@](C)(C(=O)N[C@@H](CO)C(N)=O)NC(=O)[C@H](CC2CCC2)NC(=O)[C@H](CCC(N)=O)NC(=O)[C@H](C)NC(=O)[C@H](Cc2c[nH]c3ccccc23)NC(=O)[C@H](Cc2ccc(O)cc2)NC(=O)[C@H](CCC(=O)O)NC1=O)[C@@H](C)O [compound 595] (Ac-LTF[R8]EYWAQ[Cba][S5]S-NH2; staple 4-11) |  |
|  |  |  | 10 to 100 nM | CC(C)C[C@H](NC(=O)c1ccc(F)cc1)C(=O)N[C@H](C(=O)N[C@@H](Cc1ccccc1)C(=O)N[C@]1(C)CCCCCCC=CCCC[C@@](C)(C(=O)N[C@@H](CO)C(=O)N[C@@H](C)C(=O)N[C@@H](C)C(N)=O)NC(=O)[C@H](CC2CCC2)NC(=O)[C@H](CCC(N)=O)NC(=O)[C@H](C)NC(=O)[C@H](Cc2c[nH]c3ccccc23)NC(=O)[C@H](Cc2ccc(O)cc2)NC(=O)[C@H](CCC(=O)O)NC1=O)[C@@H](C)O [compound 597] |  |
|  |  |  | 10 to 100 nM | CC(C)C[C@H](NC(=O)CCNC(=O)c1ccc2c(c1)C(=O)OC21c2ccc(N(C)C)cc2Oc2cc(N(C)C)ccc21)C(=O)N[C@H](C(=O)N[C@@H](Cc1ccccc1)C(=O)N[C@]1(C)CCCCCCC=CCCC[C@@](C)(C(=O)N[C@@H](CO)C(=O)N[C@@H](C)C(=O)N[C@@H](C)C(N)=O)NC(=O)[C@H](CC2CCC2)NC(=O)[C@H](CCC(N)=O)NC(=O)[C@H](C)NC(=O)[C@H](Cc2c[nH]c3ccccc23)NC(=O)[C@H](Cc2ccc(O)cc2)NC(=O)[C@H](CCC(=O)O)NC1=O)[C@@H](C)O [compound 686] |  |
